From the C3SDB collision cross section collection

Details: [M+H]+; instrument: DT; single field, calibrated with ESI Low Concentration Tuning Mix (Agilent)

Row | Compound | collision cross section (N2)
1 | Cn1cncc1C[C@H](NC(=O)CCN)C(=O)O [ANSERINE] | 153.8 Å²
2 | NC(CS(=O)(=O)O)C(=O)O (configuration not stated) [CYSTEATE] | 140.2 Å²
3 | Nc1nc(=O)c2ncn([C@@H]3O[C@H](COP(=O)(O)O)[C@@H](O)[C@H]3O)c2[nH]1 [GUANOSINE MONOPHOSPHATE] | 179.5 Å²

Same assay, conditions: [M+Na-2H]-; instrument: DT; single field, calibrated with ESI Low Concentration Tuning Mix (Agilent)

Row | Compound | collision cross section (N2)
4 | NC(CS(=O)(=O)O)C(=O)O (configuration not stated) [CYSTEATE] | 131.4 Å²
5 | Nc1nc(=O)c2ncn([C@@H]3O[C@H](COP(=O)(O)O)[C@@H](O)[C@H]3O)c2[nH]1 [GUANOSINE MONOPHOSPHATE] | 172.1 Å²

Same assay, conditions: [M+Na]+; instrument: DT; single field, calibrated with ESI Low Concentration Tuning Mix (Agilent)

Row | Compound | collision cross section (N2)
6 | Cn1cncc1C[C@H](NC(=O)CCN)C(=O)O [ANSERINE] | 156.2 Å²
7 | NC(CS(=O)(=O)O)C(=O)O (configuration not stated) [CYSTEATE] | 148.2 Å²
8 | Nc1nc(=O)c2ncn([C@@H]3O[C@H](COP(=O)(O)O)[C@@H](O)[C@H]3O)c2[nH]1 [GUANOSINE MONOPHOSPHATE] | 174.3 Å²

Same assay, conditions: [M-H]-; instrument: DT; single field, calibrated with ESI Low Concentration Tuning Mix (Agilent)

Row | Compound | collision cross section (N2)
9 | Cn1cncc1C[C@H](NC(=O)CCN)C(=O)O [ANSERINE] | 154.8 Å²
10 | NC(CS(=O)(=O)O)C(=O)O (configuration not stated) [CYSTEATE] | 123 Å²
11 | Nc1nc(=O)c2ncn([C@@H]3O[C@H](COP(=O)(O)O)[C@@H](O)[C@H]3O)c2[nH]1 [GUANOSINE MONOPHOSPHATE] | 169.4 Å²

Details: [M+H-H2O]+; instrument: TW; calibrated with polyalanine and drug standards

Row | Compound | collision cross section (N2)
12 | COc1cc([C@@H]2c3cc4c(cc3[C@H](O)[C@H]3COC(=O)[C@H]23)OCO4)cc(OC)c1OC [PODOFILOX] | 190.1 Å²

Same assay, conditions: [M+H]+; instrument: TW; calibrated with polyalanine and drug standards

Row | Compound | collision cross section (N2)
13 | CC(C(=O)O)c1ccc(C(=O)c2cccs2)cc1 (configuration not stated) [SUPROFEN] | 157.2 Å²
14 | O=C(CCCN1CC=C(n2c(=O)[nH]c3ccccc32)CC1)c1ccc(F)cc1 [DROPERIDOL] | 195 Å²
15 | CN1CCN(C(=O)OC2c3nccnc3C(=O)N2c2ccc(Cl)cn2)CC1 (configuration not stated) [ZOPICLONE] | 186.5 Å²
16 | CCCCC1(COC(=O)CCC(=O)O)C(=O)N(c2ccccc2)N(c2ccccc2)C1=O [SUXIBUZONE] | 199.3 Å²
17 | COc1cc(-c2coc3cc(O)c(OC)c(O)c3c2=O)cc(O)c1OC [IRIGENIN] | 181.6 Å²
18 | COC(=O)Nc1nc2ccc(C(=O)c3cccs3)cc2[nH]1 [NOCODAZOLE] | 168.7 Å²
19 | C[C@H]1CC[C@@H](C(C)(C)O)CC2=C1CC[C@@H]2C [GUAIOL(-)] | 146.3 Å²
20 | Cc1ccc(S(=O)(=O)NC(=O)NN2CC3CCCC3C2)cc1 (configuration not stated) [GLICLAZIDE] | 178 Å²
21 | CC(C)(Oc1ccc(CCNC(=O)c2ccc(Cl)cc2)cc1)C(=O)O [BEZAFIBRATE] | 177.3 Å²
22 | COc1cc2c(cc1OC)[C@@]13CCN4CC5=CCO[C@H]6CC(=O)N2[C@H]1[C@H]6[C@H]5C[C@H]43 [BRUCINE] | 190.9 Å²
23 | Oc1cc(O)c2c(c1)O[C@H](c1cc(O)c(O)c(O)c1)[C@H](O)C2 [EPIGALLOCATECHIN] | 165.5 Å²
24 | CC1=C(O)C(=O)C=C2C1=CC=C1[C@@]2(C)CC[C@@]2(C)[C@@H]3C[C@](C)(C(=O)O)CC[C@]3(C)CC[C@]12C [CELASTROL] | 205.6 Å²
25 | CC(=O)OCC(=O)[C@@]1(O)[C@H](OC(C)=O)C[C@H]2[C@@H]3CCC4=CC(=O)C=C[C@]4(C)[C@@]3(F)[C@@H](O)C[C@@]21C [TRIAMCINOLONE DIACETATE] | 209.5 Å²
26 | COc1ccc(-c2cc(=O)c3c(O)cc(O)cc3o2)cc1 [ACACETIN] | 160.3 Å²
27 | CC(=O)OC1CCC2(C)C3=C(CC[C@H]2C1(C)C)[C@@]1(C)CC[C@@H]([C@@H](C)CCC=C(C)C)[C@]1(C)CC3 (some centres not stated) [EUPHOL ACETATE] | 218 Å²
28 | O=C(O)C1=CC(=C(c2ccc(O)c(C(=O)O)c2)c2ccc(O)c(C(=O)O)c2)C=CC1=O [AURIN TRICARBOXYLIC ACID] | 197.6 Å²
29 | CCCCC(=O)O[C@]1(C(=O)CO)[C@@H](C)C[C@H]2[C@@H]3CCC4=CC(=O)C=C[C@]4(C)[C@@]3(F)[C@@H](O)C[C@@]21C [BETAMETHASONE VALERATE] | 214 Å²
30 | COc1c2c(cc3occ(-c4ccc5c(c4)OCO5)c(=O)c13)OC(C)(C)C=C2 [METHYL ROBUSTONE] | 186.9 Å²
31 | C/C(=C\C(=O)OCCCCCCCCC(=O)O)C[C@@H]1OC[C@H](C[C@@H]2O[C@H]2[C@@H](C)[C@H](C)O)[C@@H](O)[C@H]1O [MUPIROCIN] | 214.8 Å²

Row | Compound | collision cross section (N2)
32 | CC(C)=CCc1c2c(c3occ(-c4ccc(O)cc4)c(=O)c3c1O)C=CC(C)(C)O2 [OSAJIN] | 201.4 Å²
33 | Cc1cccc(C)c1NC(=O)c1ccccc1C(=O)O [FTAXILIDE] | 159.2 Å²
34 | COC(=O)[C@H](Cc1ccccc1)NC(=O)/C(=C1\OC(=O)C(c2ccccc2)=C1O)c1ccccc1 [RHIZOCARPIC ACID] | 212.8 Å²
35 | COc1ccc2c(C)cc(=O)oc2c1 [HYMECROMONE METHYL ETHER] | 134.4 Å²
36 | O=c1[nH]c2ccccc2n1C1CCN(CCCC(c2ccc(F)cc2)c2ccc(F)cc2)CC1 [PIMOZIDE] | 212.6 Å²
37 | CC(C)Cn1c(=O)n(C)c(=O)c2[nH]cnc21 [3-ISOBUTYL-1-METHYLXANTHINE (IBMX)] | 147.8 Å²
38 | CC[C@H]1CN2CC[C@H]1C[C@@H]2[C@@H](O)c1ccnc2ccc(OC)cc12 [HYDROQUINIDINE] | 176.7 Å²
39 | COCCc1ccc(OCC(O)CNC(C)C)cc1 (configuration not stated) [METOPROLOL] | 170.7 Å²
40 | C[C@]12CC[C@H](O)C[C@H]1CC[C@@H]1[C@@H]2C[C@@H](O)[C@]2(C)[C@@H](C3=CC(=O)OC3)CC[C@]12O [DIGOXIGENIN] | 195.1 Å²
41 | COc1cc([C@@H]2c3cc4c(cc3[C@H](O)[C@H]3COC(=O)[C@H]23)OCO4)cc(OC)c1OC [PODOFILOX] | 189.6 Å²
42 | CC(C)C(=O)Nc1ccc([N+](=O)[O-])c(C(F)(F)F)c1 [FLUTAMIDE] | 160 Å²
43 | O=C(Nc1ccc(C(=O)O)c(O)c1)c1ccccc1 [BENZOYLPAS] | 156.3 Å²
44 | Cc1cc(=O)oc2c(O)c(O)ccc12 [4-METHYLDAPHNETIN] | 134.8 Å²
45 | COc1cc(OC)c(-c2c(OC)cc(OC)cc2OC)c(OC)c1 [DIFUCOL HEXAMETHYL ETHER] | 175.2 Å²
46 | COC(=O)C1=C(C)NC(C)=C(C(=O)OCC(C)C)C1c1ccccc1[N+](=O)[O-] (configuration not stated) [NISOLDIPINE] | 187.2 Å²
47 | COc1ccc2c(c1)OCC(Cc1ccc(OC)c(OC)c1)C2=O (configuration not stated) [DEOXYSAPPANONE B TRIMETHYL ETHER] | 176.6 Å²
48 | O=C(O)C1CCCNC1 (configuration not stated) [NIPECOTIC ACID] | 124.6 Å²
49 | CO[C@@]12[C@H](COC(N)=O)C3=C(C(=O)C(C)=C(N)C3=O)N1C[C@@H]1N[C@@H]12 [MITOMYCIN C] | 169.5 Å²
50 | COc1cc(OC)c2c(c1)O[C@H](c1ccc(OC)c(OC)c1)[C@@H](O)C2 [CATECHIN TETRAMETHYLETHER] | 174.4 Å²

Row | Compound | collision cross section (N2)
51 | CCn1cc(C(=O)O)c(=O)c2cnc(N3CCNCC3)nc21 [PIPEMIDIC ACID] | 171 Å²
52 | CCCC(C)(COC(N)=O)COC(=O)NC(C)C (configuration not stated) [CARISOPRODOL] | 149.1 Å²
53 | CC(C)(c1ccc(O)cc1)c1ccc(O)cc1 [BISPHENOL A] | 147.1 Å²
54 | c1coc(CNc2ncnc3nc[nH]c23)c1 [KINETIN] | 144.1 Å²
55 | CC(=O)O[C@@H]1CC2C(C)(C)[C@H](O)CC[C@]2(C)C2CC[C@@]3(C)[C@H](c4ccoc4)OC(=O)C4OC43[C@@]21C (stereo partly drawn) [alpha-DIHYDROGEDUNOL] | 205.9 Å²
56 | C[C@]12CCC(=O)C=C1C=C[C@@H]1[C@@H]2CC[C@@]2(C)[C@H]1CC[C@@]21CCC(=O)O1 [CANRENONE] | 183 Å²
57 | COc1c(N2CCNC(C)C2)c(F)cc2c(=O)c(C(=O)O)cn(C3CC3)c12 (configuration not stated) [GATIFLOXACIN] | 189.5 Å²
58 | Cc1c(O)c(=O)ccn1C [DEFERIPRONE] | 123.2 Å²
59 | C[C@@H]1O[C@@H](OC[C@H]2OC(Oc3c(-c4ccc(O)c(O)c4)oc4cc(O)cc(O)c4c3=O)[C@H](O)[C@@H](O)[C@@H]2O)[C@H](O)[C@H](O)[C@H]1O (some centres not stated) [RUTOSIDE  (rutin)] | 230.7 Å²
60 | CC(C)CCC[C@@H](C)[C@H]1CC[C@H]2[C@@H]3C(=O)C=C4C[C@@H](O)CC[C@]4(C)[C@H]3CC[C@]12C [7-OXOCHOLESTEROL] | 208.3 Å²
61 | COc1c(-c2coc3cc4c(cc3c2=O)CC(OC(C)=O)C(C)(C)O4)ccc2c1C=CC(C)(C)O2 (configuration not stated) [MUNDULONE ACETATE] | 222.7 Å²
62 | O=C(O)CN(CCN(CC(=O)O)CC(=O)O)CCN(CC(=O)O)CC(=O)O [PENTETIC ACID] | 180.2 Å²
63 | Clc1ccc(CCC(Cn2ccnc2)Sc2c(Cl)cccc2Cl)cc1 (configuration not stated) [BUTOCONAZOLE] | 186.5 Å²
64 | O=c1c(O)c(-c2ccccc2)oc2ccccc12 [3-HYDROXYFLAVONE] | 146.3 Å²
65 | O=c1ccc2cc(O[C@@H]3O[C@H](CO)[C@@H](O)[C@H](O)[C@H]3O)c(O)cc2o1 [AESCULIN] | 174 Å²
66 | COc1cc2c(cc1OC)-c1c(oc3cc(O)cc(O)c3c1=O)CO2 [APOTOXICAROL] | 173.8 Å²
67 | CCCOc1ccccc1-c1nc2[nH][nH]nc-2c(=O)n1 [ZAPRINAST] | 159.2 Å²
68 | CSc1nc2cc(Oc3cccc(Cl)c3Cl)c(Cl)cc2[nH]1 [TRICLABENDAZOLE] | 179.3 Å²

Same assay, conditions: [M+Na]+; instrument: TW; calibrated with polyalanine and drug standards

Row | Compound | collision cross section (N2)
69 | CC(=O)NCCCCCC(=O)O [ACEXAMIC ACID] | 141.4 Å²
70 | C[C@@H]1O[C@@H](O[C@H]2[C@H](Oc3cc(O)c4c(c3)O[C@H](c3ccc(O)cc3)CC4=O)O[C@H](CO)[C@@H](O)[C@@H]2O)[C@H](O)[C@H](O)[C@H]1O [NARINGIN] | 233.5 Å²
71 | CC(=O)Oc1cc2c(c(C)c1OC(C)=O)CC=C1[C@@]2(C)CC[C@@]2(C)C3C[C@](C)(C(=O)O)CC[C@]3(C)CC[C@]12C (some centres not stated) [DIHYDROCELASTRYL DIACETATE] | 219.7 Å²
72 | CC(=O)OCC(OC(C)=O)C(OC(C)=O)C(OC(C)=O)C(OC(C)=O)C(COC(C)=O)OC(C)=O (configuration not stated) [PERSEITOL HEPTAACETATE] | 205.7 Å²
